Results: patent US20090209474A1, “NOVEL USES FOR DRUGS TARGETING GLUTAMINE SYNTHETASE” (NEWTHERA, priority 2005, published 2009)

Assays:
GS (mung bean) = details: cited from earlier work
purified pig brain GS = target: T1, purified pig brain GS (Sus scrofa, UniProt P46410); test: Interaction of NF and purified pig GS (agarose diffusion, precipitation, spot blot, western blot); format: binding
T1 construct: Fifty microlitre of purified pig brain GS (3 mg/ml) was added to one peripheral well; from tissue; host or cells: pig brain (purified enzyme)
Description: Five ml of agarose 0.1% were let to polymerise in a Petri dish. Five wells with equal volume and distance from each other, 1 central and 4 peripherals, were made on it using a 300 μl tip. The central well was filed with 50 μl of NF solution ([…]). Fifty microlitre of purified pig brain GS (3 mg/ml) was added to one peripheral well. In two other wells either 50 μl of TBS or FCS was added. The gel was humidified and left at 37° C. for 48 h.
The final concentration of methanol per assay tube was 10% V/V. Fixed (3 mg/ml) or variable (0.023 to 3 mg/ml) concentrations of either purified brain pig GS or rat brain homogenates were added to each assay tube. The tubes were incubated a room temperature for 5 min. Methanol (10%) and FCS were used as negative controls. The tubes were thereafter centrifuged at 700 g. Supernatant was discarded and the pellets were suspended in 100 μl working buffer and incubated for 15 min at 37° C. The reaction was finally stopped and absorbance was measured as described above.
Twenty μl of agarose gel with precipitated NF/protein complexes issued from diffusion study was applied to methanol activated PVDF membrane. Non-specific binding sites were blocked by 5% low fat skimmed milk in TBS buffer, supplemented with 0.1% tween 20. Transferred proteins were allowed to react with either polyclonal rabbit anti-GS (1/3000) or anti-GR (1/3000) antibodies for 30 min at room temperature. After one quick wash with TBS, 0.1% tween 20, horseradish peroxidase conjugated goat anti-rabbit antibody was subjected (1/5000) to the transferred proteins for 30 min at room temperature.
Twenty μl per well of precipitated NF/protein complex were separated on 8% SDS-PAGE gel in absence or presence of 2β-mercaptoethanol. The proteins separated in presence or the absence of SDS were thereafter transferred to a nitrocellulose membrane ([…]). Non-specific binding sites were blocked by 5% low fat skimmed milk in TBS buffer, supplemented with 0.1% tween 20. Transferred proteins were thereafter allowed to react with either polyclonal rabbit anti-GS (1/3000) or anti-GR (1/3000) antibodies for 30 min at room temperature. After one quick wash with TBS, 0.1% tween 20, horseradish peroxidase conjugated goat anti-rabbit antibody was subjected (1/5000) to the transferred proteins for 30 min at room temperature.

GS [1] = target: GS (Mus musculus, UniProt P15105); format: in vivo, BALB/c mice; set-up: from tissue; host or cells: mouse brain (whole brain, cortex, hippocampus, thalamus/hypothalamus); details: 24 h after single i.p., NF 10 and 100 mg/kg
Description: (§1) Cortex, hippocampi and thalamus/hypothalamus were carefully isolated immediately after euthanasia. Membranes were prepared and the activity of GS determined in these different structures (as mentioned above for the whole brain).

GS [2] = target: GS (Rattus norvegicus, UniProt P09606); format: in vivo, Wistar rats; set-up: from tissue; host or cells: Wistar rat brain homogenate or membranes; in A19 also liver and lungs
Description: as §1

[3] = Adrenal weight of rats administered methylprednisolone; format: in vivo, Wistar rats
Description: Wistar rats were administered during 21 days once a day with methyprednisolone (5 mg/kg i.p.) plus GF (0.001, 0.01, 0.1 mg/kg), NF (1 and 10 mg/kg) or vehicle (PCB; i.p). Twenty-four hours after the last administrations, they were euthanatized. A complete necropsy was performed and main organs weighted.

Wistar rat brain GS = target: T2, Wistar rat brain GS (Rattus norvegicus, UniProt P09606); test: GS activity in Wistar rat brain homogenates; format: biochemical; details: in absence of 2β-ME
T2 construct: from tissue; host or cells: Wistar rat brain homogenate or membranes; in A19 also liver and lungs
Description: GS activity was assessed as mentioned above for purified sheep brain GS.

glutamine synthetase = target: T3, glutamine synthetase (Rattus norvegicus, UniProt P09606); test: Proteins precipitated by NF from rat brain homogenate (mass spectrometry); format: binding; details: 8% gel, native conditions
T3 construct: Wistar rat brain homogenates were incubated with naftazone; from tissue; host or cells: Wistar rat brain homogenate or membranes; in A19 also liver and lungs
T3 sequence (P09606 2-373 limits assumed): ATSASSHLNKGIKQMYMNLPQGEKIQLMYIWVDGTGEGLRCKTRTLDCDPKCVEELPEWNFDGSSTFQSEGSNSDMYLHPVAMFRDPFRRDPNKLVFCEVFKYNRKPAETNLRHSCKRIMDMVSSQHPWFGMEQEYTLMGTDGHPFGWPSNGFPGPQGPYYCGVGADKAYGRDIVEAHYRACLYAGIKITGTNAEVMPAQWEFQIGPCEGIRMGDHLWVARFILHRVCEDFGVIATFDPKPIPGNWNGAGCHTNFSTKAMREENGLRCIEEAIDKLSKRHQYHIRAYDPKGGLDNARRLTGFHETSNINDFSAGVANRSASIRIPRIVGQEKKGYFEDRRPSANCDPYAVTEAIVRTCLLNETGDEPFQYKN

Sequence of GS (Rattus norvegicus, UniProt P09606) (P09606 2-373 limits assumed): as above
T1 sequence (P46410 2-373 limits assumed): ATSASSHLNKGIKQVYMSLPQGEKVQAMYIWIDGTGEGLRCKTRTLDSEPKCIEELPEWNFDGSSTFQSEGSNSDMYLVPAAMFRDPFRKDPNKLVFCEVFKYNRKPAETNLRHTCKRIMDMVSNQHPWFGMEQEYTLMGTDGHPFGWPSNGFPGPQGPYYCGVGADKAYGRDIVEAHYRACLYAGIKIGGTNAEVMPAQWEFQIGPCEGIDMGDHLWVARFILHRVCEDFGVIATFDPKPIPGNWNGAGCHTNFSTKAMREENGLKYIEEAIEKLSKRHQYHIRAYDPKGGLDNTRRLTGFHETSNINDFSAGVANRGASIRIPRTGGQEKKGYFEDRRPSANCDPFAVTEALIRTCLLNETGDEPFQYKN
Sequence of GS (Mus musculus, UniProt P15105) (P15105 2-373 limits assumed): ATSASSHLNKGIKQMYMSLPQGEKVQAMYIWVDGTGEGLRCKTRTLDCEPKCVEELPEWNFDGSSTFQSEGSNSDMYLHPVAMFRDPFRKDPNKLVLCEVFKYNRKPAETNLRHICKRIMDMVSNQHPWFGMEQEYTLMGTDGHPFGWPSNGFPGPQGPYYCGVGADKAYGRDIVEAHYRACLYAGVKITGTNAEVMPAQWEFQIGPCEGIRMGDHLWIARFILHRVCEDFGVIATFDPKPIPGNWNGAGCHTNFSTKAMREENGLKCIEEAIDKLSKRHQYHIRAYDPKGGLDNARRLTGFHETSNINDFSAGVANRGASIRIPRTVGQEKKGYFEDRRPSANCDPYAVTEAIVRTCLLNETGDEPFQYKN
T2 sequence (P09606 2-373 limits assumed): as the sequence (P09606 2-373 limits assumed) above

Structure (SMILES) | Ki (GS (mung bean)) [nM] | interaction between NF and purified pig GS in agarose (0.1%) gel (purified pig brain GS; Commassie blue) | precipitation of GS protein by different concentration of NF (purified pig brain GS; NF 6.3e^−19 to 4.8e^−7 M, GS 3 mg/ml) | identity of the precipitated protein (dotblot) (purified pig brain GS; anti-GS antibodies) | precipitated proteins subjected to rabbit anti-GR antibodies (purified pig brain GS; purified pig GS and whole rat brain homogenates) | GS activity in the hippocampus (GS [1]) | GS activity in the thalamus/hypothalamus (GS [1]; GF 1 mg/kg) | GS activity in the cortex (GS [2]; NF 1 and 10 mg/kg i.p.) | GS activity in the hippocampus (GS [2]; NF 1 and 10 mg/kg i.p.) | GS activity in the thalamus/hypothalamus (GS [2]; NF 1 and 10 mg/kg i.p., twenty four hours after administration) | dose of maximum effect on hippocampus GS activity (GS [2]; rat, in vivo) [mg/kg] | adrenal weight ([3]; GF 0.001, 0.01, 0.1 mg/kg, NF 1 and 10 mg/kg, methyprednisolone 5 mg/kg i.p., 21 days, versus PCB) | dose relation of the effect on adrenal weight ([3]; rat, in vivo) | “high” concentration range inhibiting GS activity (Wistar rat brain GS) | presence of G-actin in the isolated band (glutamine synthetase) [%] | presence of glutamine synthetase in the isolated band (glutamine synthetase) [%]
NC1(C(=O)O)CCC(P(=O)(O)O)C1 (centres unmarked) [Cyclopentane phosphinothricin, 1-Amino-3-phosphono-cyclopentane-carboxylic acid] | 470 |  |  |  |  |  |  |  |  |  |  |  |  |  |  | 
NC(=O)NN=C1C=Cc2ccccc2C1=O [NF, 1-oxo, 2 naphtyl semicarbazone] |  | revealed a clear precipitated protein | precipitated dose dependently GS protein | revealed specifically glutamine synthetase | did not reveal any protein | trend to an increase of GS activity | decreased | No significant treatment-effect | increased GS activity | dose-dependently decreased GS activity | 1 | higher | dose-dependent effect | 10^−12 to 10^−14 M | 70 | 30
NC1(C(=O)O)COC(P(=O)(O)O)C1 (centres unmarked) [Tetrahydrofuran phosphinothricin, 3-Amino-5-phosphono-tetrahydro-furan-3-carboxylic acid] | 5000 |  |  |  |  |  |  |  |  |  |  |  |  |  |  | 
